Test results published in ChEMBL document CHEMBL4613241, “Disulfide Cleavage in a Dimeric Epipolythiodioxopiperazine Natural Product Diminishes Its Apoptosis-Inducing Effect but Enhances Autophagy in Tumor Cells” (2020).
Active and inactive are the calls of the source. No cut-off for these calls is given here.

How the values were obtained:
HepG2 [1] = assay: Induction of autophagy in human HepG2 cells assessed as ratio of LC3-2 level to total Erk1/2 protein level at 0.5 uM after 4 hrs in presence of CC and CQ by Western blot analysis (reference value: 2.4); format: functional
HepG2 [2] = assay: Induction of autophagy in human HepG2 cells ratio of LC3-2 level to total ERK level at 0.5 uM after 2 hrs in presence of PFKFB3 siRNA and CQ by Western blot analysis relative to PFKFB3 siRNA; format: functional
HCT-116 [3] = assay: Inhibition of colony formation in human HCT116 at 0.1 uM after 2 weeks by trypan blue staining based assay relative to control; format: functional; conditions: HCT-116, 336 h
HepG2 [4] = assay: Induction of autophagy in human HepG2 cells assessed as ratio of LC3-2 level to total Erk1/2 protein level at 0.5 uM after 4 hrs in presence of CC and CQ by Western blot analysis relative to CC; format: functional
HepG2 [5] = assay: Induction of autophagy in human HepG2 cells assessed as increase in LC3 puncta staining at 0.5 uM after 4 hrs by immunostaining based fluorescence microscopic analysis; format: functional, cell-based
HepG2 [6] = assay: Activation of AMPKalpha in human HepG2 cells assessed as ratio of ACCalpha phosphorylation at S79 residue to total ERK level at 0.5 uM incubated for 4 hrs by Western blot analysis (reference value: 1); format: cell-based
SW480 = assay: Antiproliferative activity against human SW480 cells assessed as reduction in cell viability by MTS assay; format: functional, cell-based
ACHN [7] = assay: Antiproliferative activity against human ACHN cells assessed as reduction in cell viability at 0.5 uM measured up to 72 hrs by MTS assay; format: functional, cell-based
HepG2 [8] = assay: Antiproliferative activity against human HepG2 cells assessed as reduction in cell viability at 0.5 uM by MTS assay; format: functional, cell-based; conditions: TDE = time-dependent effect
T-24 [9] = assay: Antiproliferative activity against human T24 cells assessed as reduction in cell viability by MTS assay; format: functional, cell-based
[10] = biological target: Serine/threonine-protein kinase mTOR (Homo sapiens) (UniProt P42345); assay: Inhibition of mTOR phosphorylation at S2448 residue in human HepG2 cells assessed as ratio of phosphorylated mTOR to total mTOR level at 1 uM after 4 hrs by Western blot analysis (reference value: 1); format: cell-based
[11] = biological target: RAC-alpha serine/threonine-protein kinase (Homo sapiens) (UniProt P31749); assay: Inhibition of AKT phosphorylation at S473 residue in human HepG2 cells assessed as ratio of phosphorylated Akt to total ERK level at 0.5 uM after 4 hrs by Western blot analysis (reference value: 1); format: cell-based
A549 = assay: Antiproliferative activity against human A549 cells assessed as reduction in cell viability by MTS assay; format: functional, cell-based
HepG2 [12] = assay: Induction of apoptosis in human HepG2 cells assessed as increase in cleaved PARP level by measuring ratio of cleaved PARP to total PARP level at 1 uM after 12 hrs by Western blot analysis; format: functional
HepG2 [13] = assay: Activation of AMPKalpha in human HepG2 cells assessed as ratio of phosphorylated AMPKalpha at T172 residue to total ERK level at 0.5 uM incubated for 4 hrs in presence of CC by Western blot analysis (reference value: 1); format: cell-based
HepG2 [14] = assay: Induction of apoptosis in human HepG2 cells assessed as increase in cleaved PARP level by measuring ratio of cleaved PARP to total PARP level at 0.5 uM after 12 hrs by Western blot analysis; format: functional
[15] = biological target: Serine/threonine-protein kinase mTOR (Homo sapiens) (UniProt P42345); assay: Inhibition of mTOR phosphorylation at S2448 residue in human HepG2 cells assessed as ratio of phosphorylated mTOR to total mTOR level at 0.05 uM after 4 hrs by Western blot analysis (reference value: 1); format: cell-based
HepG2 [16] = assay: Induction of autophagy in human HepG2 cells assessed as ratio of LC3-2 level to total ERK level at 0.5 uM after 2 hrs in presence of PFKFB3 siRNA and CQ by Western blot analysis (reference value: 0.8); format: functional
HepG2 [17] = assay: Induction of autophagy in human HepG2 cells assessed as ratio of LC3-2 to total Erk1/2 protein level at 0.5 uM after 4 hrs in presence of CQ by Western blot analysis (reference value: 2.6); format: functional
HeLa = assay: Antiproliferative activity against human HeLa cells assessed as reduction in cell viability by MTS assay; format: functional, cell-based
[18] = biological target: Serine/threonine-protein kinase mTOR (Homo sapiens) (UniProt P42345); assay: Inhibition of mTOR phosphorylation at S2448 residue in human HepG2 cells assessed as ratio of phosphorylated mTOR to total mTOR level at 0.1 uM after 4 hrs by Western blot analysis (reference value: 1); format: cell-based
HepG2 [19] = assay: Induction of autophagy in human HepG2 cells assessed as ratio of LC3-2 level to total ERK level at 0.5 uM after 2 hrs in presence of PFK15 and CQ by Western blot analysis relative to PFK15; format: functional
HepG2 [20] = assay: Induction of autophagy in human HepG2 cells assessed as ratio of LC3-2 level to total ERK level at 0.5 uM after 2 hrs in presence of HK2 siRNA by Western blot analysis (reference value: 3.1); format: functional
T-24 [21] = assay: Induction of autophagy in human T24 cells assessed as increase in ratio of LC3-2 to total Erk1/2 protein level at 0.5 uM after 12 hrs by Western blot analysis; format: functional, cell-based
HepG2 [22] = assay: Induction of autophagy in human HepG2 cells assessed as ratio of LC3-2 to total Erk1/2 protein level at 0.5 uM after 4 hrs by Western blot analysis (reference value: 1); format: functional
HCT-116 [23] = assay: Antiproliferative activity against human HCT116 cells assessed as reduction in cell viability by MTS assay; format: functional, cell-based
HepG2 [24] = assay: Induction of autophagy in human HepG2 cells assessed as inhibition of lactate generation at 0.5 uM up to 4 hrs; format: functional, cell-based
ACHN [25] = assay: Antiproliferative activity against human ACHN cells assessed as reduction in cell viability at 5 uM measured up to 72 hrs by MTS assay; format: functional, cell-based
HepG2 [26] = assay: Induction of autophagy in human HepG2 cells assessed as increase in formation of autophagosomes at 0.5 uM after 2 to 48 hrs by TEM analysis; format: functional, cell-based
HepG2 [27] = assay: Induction of autophagy in human HepG2 cells assessed as ratio of LC3-2 level to total Erk1/2 protein level at 0.5 uM after 4 hrs in presence of CC by Western blot analysis (reference value: 1.3); format: functional
HCT-116 [28] = assay: Inhibition of colony formation in human HCT116 at 1 to 5 uM after 2 weeks by trypan blue staining based assay; format: functional, cell-based
HepG2 [29] = assay: Induction of apoptosis in human HepG2 cells assessed as increase in cleaved PARP1 level at 5 uM after 12 hrs by Western blot analysis; format: functional, cell-based
T-24 [30] = assay: Induction of apoptosis in human T24 cells assessed as increase in cleaved PARP1 level at 5 uM after 12 hrs by Western blot analysis; format: functional, cell-based
HepG2 [31] = assay: Induction of autophagy in human HepG2 cells assessed as increase in formation of autophagosome-like vacuoles at 0.5 uM after 2 to 48 hrs by TEM analysis; format: functional, cell-based

Sequence of RAC-alpha serine/threonine-protein kinase (Homo sapiens) (P31749 whole entry): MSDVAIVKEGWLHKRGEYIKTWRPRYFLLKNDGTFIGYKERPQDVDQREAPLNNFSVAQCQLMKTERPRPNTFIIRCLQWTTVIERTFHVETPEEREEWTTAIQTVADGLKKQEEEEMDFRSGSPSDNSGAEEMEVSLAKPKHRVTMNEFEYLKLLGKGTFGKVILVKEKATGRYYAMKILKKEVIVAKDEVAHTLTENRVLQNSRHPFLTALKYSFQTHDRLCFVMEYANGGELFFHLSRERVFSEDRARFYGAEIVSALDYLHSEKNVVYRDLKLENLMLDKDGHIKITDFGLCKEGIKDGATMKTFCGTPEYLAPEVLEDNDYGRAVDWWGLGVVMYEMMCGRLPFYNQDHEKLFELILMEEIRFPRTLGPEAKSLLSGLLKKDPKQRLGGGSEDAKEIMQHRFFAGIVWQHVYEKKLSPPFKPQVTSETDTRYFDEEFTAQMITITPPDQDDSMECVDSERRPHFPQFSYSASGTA

CC[C@@]12SS[C@]3(C(=O)N1C)[C@@H](O)C1(C45c6ccccc6N[C@@H]4N4C(=O)[C@]6([C@@H](C)O)SS[C@]4(C(=O)N6C)[C@H]5O)c4ccccc4N[C@@H]1N3C2=O (stereo not given in full)
Ratio (HepG2 [1]): 0.9
fold change (FC) (HepG2 [2]): 4.8
inhibition at 0.1 µM (HCT-116 [3]): 100%
fold change (FC) (HepG2 [4]): 0.9
Activity (HepG2 [5]): Active
Ratio (HepG2 [6]): 1.4
Activity (SW480): Active
Activity (ACHN [7]): Active
Activity (HepG2 [8]): Tde
Activity (T-24 [9]): Active
Ratio [10]: 1.8
Ratio [11]: 1.2
Activity (A549): Active
Ratio (HepG2 [12]): 1
Ratio (HepG2 [13]): 0.9
Ratio (HepG2 [14]): 0.1
Ratio [15]: 1.4
Ratio (HepG2 [16]): 4.3
Ratio (HepG2 [17]): 2.8
Activity (HeLa): Active
Ratio [18]: 1.2
fold change (FC) (HepG2 [19]): 3.4
Ratio (HepG2 [20]): 1.6
Activity (T-24 [21]): Active
Ratio (HepG2 [22]): 1.2
Activity (HCT-116 [23]): Active
inhibition (HepG2 [24]): Active

CCC1(SC)C(=O)N2[C@H]3N(C)c4ccccc4C3(C34c5ccccc5N(C)[C@@H]3N3C(=O)C(SC)([C@@H](C)O)N(C)C(=O)C3(SC)[C@H]4O)[C@H](O)C2(SC)C(=O)N1C (stereo not given in full)
Ratio (HepG2 [1]): 0.9
fold change (FC) (HepG2 [2]): 4.6
Activity (ACHN [25]): Active
fold change (FC) (HepG2 [4]): 1.3
Activity (HepG2 [26]): Active
Activity (HepG2 [5]): Active
Ratio (HepG2 [6]): 1.7
Ratio (HepG2 [27]): 0.7
inhibition (HCT-116 [28]): Active
Activity (SW480): Active
Activity (T-24 [9]): Active
Ratio [10]: 2.2
Ratio [11]: 1.1
Activity (A549): Active
Ratio (HepG2 [13]): 0.9
Ratio [15]: 1.8
Activity (HepG2 [29]): inactive
Ratio (HepG2 [16]): 4.6
Ratio (HepG2 [17]): 3.1
Activity (HeLa): Active
Ratio [18]: 1.8
Activity (T-24 [30]): inactive
Activity (HepG2 [31]): Active
fold change (FC) (HepG2 [19]): 2.4
Ratio (HepG2 [20]): 1.1
Activity (T-24 [21]): Active
Ratio (HepG2 [22]): 1.1
Activity (HCT-116 [23]): Active
